Values of other authors in US10485783B1, “Methods and compositions for reducing or eliminating symptoms of withdrawal from drugs and alcohol” (Longevity Healthcare Center, priority 2018, dated 2019).

How the values were obtained:
[1] = in vitro
[2] = tested on: rats self-administering morphine; settings: morphine 2 hours per day on 10 consecutive days, then ascorbic acid intraperitoneally
[3] = tested on: GABAA and GABAB receptors; settings: synergistic with a GABAA receptor agonist, blocked by a GABAB receptor agonist

Structure (SMILES) | concentration at which ascorbic acid generates free radicals (pro-oxidant) [1] [mM] | level of morphine self-administration (number of lever pressings) and number and intensity of withdrawal symptoms [2] | anti-depressive activity [3]
O=C1O[C@H]([C@@H](O)CO)C(O)=C1O [ascorbic acid] | 3 to 5 | decrease | anti-depressive activity
CNC1(c2ccccc2Cl)CCCCC1=O (stereo not shown) [Ketamine] |  |  | anti-depressive activity
